For 9 compounds, inhibition results are on record in ChEMBL document CHEMBL5442219.

Common to all, as to conditions: Compound concentration 10 µM
The target of assay [1] is 5-hydroxytryptamine receptor 2B (Homo sapiens) (UniProt P41595).
For assay [2], the target named is T1, Alpha-2B adrenergic receptor (Homo sapiens) (UniProt P18089).
T1 sequence (whole entry): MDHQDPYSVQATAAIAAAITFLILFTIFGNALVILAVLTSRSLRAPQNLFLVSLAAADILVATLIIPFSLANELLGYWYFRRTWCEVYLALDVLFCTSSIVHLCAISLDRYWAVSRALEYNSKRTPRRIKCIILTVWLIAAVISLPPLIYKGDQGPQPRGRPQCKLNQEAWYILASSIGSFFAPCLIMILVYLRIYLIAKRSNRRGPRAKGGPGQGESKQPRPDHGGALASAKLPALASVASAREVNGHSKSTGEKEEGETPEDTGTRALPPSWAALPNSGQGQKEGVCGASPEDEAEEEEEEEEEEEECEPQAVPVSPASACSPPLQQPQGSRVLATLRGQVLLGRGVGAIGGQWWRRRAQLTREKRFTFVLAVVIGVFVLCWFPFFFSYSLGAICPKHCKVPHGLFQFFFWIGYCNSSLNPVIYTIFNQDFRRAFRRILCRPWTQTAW

In assay [3] the target is Sodium-dependent noradrenaline transporter (Homo sapiens) (UniProt P23975).
For assay [4], the target named is 5-hydroxytryptamine receptor 5A (Homo sapiens) (UniProt P47898).
Assay [5] addresses Histamine H1 receptor (Homo sapiens) (UniProt P35367).
The target of assay [6] is T2, 5-hydroxytryptamine receptor 1A (Homo sapiens) (UniProt P08908).
T2 sequence (whole entry): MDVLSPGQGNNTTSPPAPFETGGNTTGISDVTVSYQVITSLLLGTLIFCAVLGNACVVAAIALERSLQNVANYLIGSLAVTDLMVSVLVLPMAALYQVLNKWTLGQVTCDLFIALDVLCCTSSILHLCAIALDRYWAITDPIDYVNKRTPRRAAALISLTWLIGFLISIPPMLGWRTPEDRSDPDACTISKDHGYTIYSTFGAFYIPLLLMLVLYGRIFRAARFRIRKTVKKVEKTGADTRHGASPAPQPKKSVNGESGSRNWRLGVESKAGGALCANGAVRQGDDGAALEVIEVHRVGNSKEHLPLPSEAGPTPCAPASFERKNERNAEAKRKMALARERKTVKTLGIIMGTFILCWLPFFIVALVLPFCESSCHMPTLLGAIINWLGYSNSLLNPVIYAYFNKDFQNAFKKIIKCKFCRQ

For assay [7], the target named is T3, Muscarinic acetylcholine receptor M4 (Homo sapiens) (UniProt P08173).
T3 sequence (whole entry): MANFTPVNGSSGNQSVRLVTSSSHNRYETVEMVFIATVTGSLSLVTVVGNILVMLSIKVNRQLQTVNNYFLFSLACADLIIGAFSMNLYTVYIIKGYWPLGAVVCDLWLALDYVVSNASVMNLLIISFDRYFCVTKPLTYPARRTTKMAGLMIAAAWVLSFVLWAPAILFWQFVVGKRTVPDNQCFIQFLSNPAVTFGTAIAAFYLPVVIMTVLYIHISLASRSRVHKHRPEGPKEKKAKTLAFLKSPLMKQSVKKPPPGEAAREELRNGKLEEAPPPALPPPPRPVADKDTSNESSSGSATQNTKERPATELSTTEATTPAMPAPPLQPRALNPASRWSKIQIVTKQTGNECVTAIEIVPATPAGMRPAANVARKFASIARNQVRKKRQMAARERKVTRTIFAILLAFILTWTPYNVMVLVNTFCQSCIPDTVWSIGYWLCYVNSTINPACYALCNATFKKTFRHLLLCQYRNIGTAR

Assay [8] deals with T4, Alpha-1D adrenergic receptor (Homo sapiens) (UniProt P25100).
T4 sequence (whole entry): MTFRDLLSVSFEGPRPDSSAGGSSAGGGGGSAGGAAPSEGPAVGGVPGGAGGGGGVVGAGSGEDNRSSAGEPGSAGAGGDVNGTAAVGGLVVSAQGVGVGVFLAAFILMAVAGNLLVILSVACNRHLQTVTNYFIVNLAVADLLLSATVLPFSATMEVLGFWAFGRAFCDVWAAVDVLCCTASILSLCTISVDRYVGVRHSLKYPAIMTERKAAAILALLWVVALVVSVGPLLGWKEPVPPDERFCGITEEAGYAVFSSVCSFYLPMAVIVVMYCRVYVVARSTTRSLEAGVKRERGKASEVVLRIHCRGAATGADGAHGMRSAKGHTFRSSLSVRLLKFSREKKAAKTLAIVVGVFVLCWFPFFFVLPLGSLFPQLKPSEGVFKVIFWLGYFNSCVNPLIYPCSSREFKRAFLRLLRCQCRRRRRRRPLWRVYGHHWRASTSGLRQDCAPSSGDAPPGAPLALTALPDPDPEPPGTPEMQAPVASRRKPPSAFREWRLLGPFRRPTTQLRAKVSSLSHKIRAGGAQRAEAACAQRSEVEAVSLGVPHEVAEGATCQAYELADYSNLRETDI

In assay [9] the target is Beta-2 adrenergic receptor (Homo sapiens) (UniProt P07550).
For assay [10], the target named is Histamine H4 receptor (Homo sapiens) (UniProt Q9H3N8).
Assay [11] concerns the target D(3) dopamine receptor (Homo sapiens) (UniProt P35462).
Assay [12] deals with Sodium-dependent dopamine transporter (Homo sapiens) (UniProt Q01959).
Assay [13] concerns the target T5, D(4) dopamine receptor (Homo sapiens) (UniProt P21917).
T5 sequence (whole entry): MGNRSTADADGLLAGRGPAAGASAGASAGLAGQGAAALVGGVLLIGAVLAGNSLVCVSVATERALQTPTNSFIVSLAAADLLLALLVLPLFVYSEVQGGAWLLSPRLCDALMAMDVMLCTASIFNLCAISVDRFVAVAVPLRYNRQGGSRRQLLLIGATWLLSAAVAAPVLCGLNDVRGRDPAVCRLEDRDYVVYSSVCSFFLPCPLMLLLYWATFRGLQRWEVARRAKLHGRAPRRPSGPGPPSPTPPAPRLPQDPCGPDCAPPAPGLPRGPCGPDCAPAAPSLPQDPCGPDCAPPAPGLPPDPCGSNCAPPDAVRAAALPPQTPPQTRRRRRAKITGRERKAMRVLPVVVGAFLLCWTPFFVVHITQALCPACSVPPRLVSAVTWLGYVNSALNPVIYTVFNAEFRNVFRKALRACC

Assay [14] concerns the target Muscarinic acetylcholine receptor M3 (Homo sapiens) (UniProt P20309).

Chain of Histamine H1 receptor (Homo sapiens) (P35367 whole entry): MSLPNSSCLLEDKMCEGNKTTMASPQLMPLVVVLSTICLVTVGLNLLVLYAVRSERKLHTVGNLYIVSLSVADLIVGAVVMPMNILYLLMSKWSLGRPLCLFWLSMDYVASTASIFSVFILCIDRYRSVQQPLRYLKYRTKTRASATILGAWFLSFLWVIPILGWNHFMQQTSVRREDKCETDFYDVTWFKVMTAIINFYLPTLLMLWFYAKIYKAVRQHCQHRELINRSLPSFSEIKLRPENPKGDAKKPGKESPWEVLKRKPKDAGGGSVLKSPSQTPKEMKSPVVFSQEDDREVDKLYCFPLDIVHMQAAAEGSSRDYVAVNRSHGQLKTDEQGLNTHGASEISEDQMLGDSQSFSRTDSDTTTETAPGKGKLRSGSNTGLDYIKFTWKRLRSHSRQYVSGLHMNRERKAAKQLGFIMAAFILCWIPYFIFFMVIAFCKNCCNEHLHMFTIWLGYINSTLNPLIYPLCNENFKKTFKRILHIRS
Chain of Histamine H4 receptor (Homo sapiens) (Q9H3N8 whole entry): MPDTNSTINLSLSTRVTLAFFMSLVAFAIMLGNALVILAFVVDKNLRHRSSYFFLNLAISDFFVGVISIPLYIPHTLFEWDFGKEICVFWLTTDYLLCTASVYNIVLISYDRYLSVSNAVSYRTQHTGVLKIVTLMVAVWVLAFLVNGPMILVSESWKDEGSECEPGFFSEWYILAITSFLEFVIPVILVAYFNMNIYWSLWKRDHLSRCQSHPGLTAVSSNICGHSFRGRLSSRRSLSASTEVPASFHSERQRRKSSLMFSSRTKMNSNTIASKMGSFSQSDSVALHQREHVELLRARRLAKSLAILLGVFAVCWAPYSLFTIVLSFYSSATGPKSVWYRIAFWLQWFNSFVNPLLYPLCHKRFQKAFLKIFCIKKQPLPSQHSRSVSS
Chain of Sodium-dependent noradrenaline transporter (Homo sapiens) (P23975 whole entry): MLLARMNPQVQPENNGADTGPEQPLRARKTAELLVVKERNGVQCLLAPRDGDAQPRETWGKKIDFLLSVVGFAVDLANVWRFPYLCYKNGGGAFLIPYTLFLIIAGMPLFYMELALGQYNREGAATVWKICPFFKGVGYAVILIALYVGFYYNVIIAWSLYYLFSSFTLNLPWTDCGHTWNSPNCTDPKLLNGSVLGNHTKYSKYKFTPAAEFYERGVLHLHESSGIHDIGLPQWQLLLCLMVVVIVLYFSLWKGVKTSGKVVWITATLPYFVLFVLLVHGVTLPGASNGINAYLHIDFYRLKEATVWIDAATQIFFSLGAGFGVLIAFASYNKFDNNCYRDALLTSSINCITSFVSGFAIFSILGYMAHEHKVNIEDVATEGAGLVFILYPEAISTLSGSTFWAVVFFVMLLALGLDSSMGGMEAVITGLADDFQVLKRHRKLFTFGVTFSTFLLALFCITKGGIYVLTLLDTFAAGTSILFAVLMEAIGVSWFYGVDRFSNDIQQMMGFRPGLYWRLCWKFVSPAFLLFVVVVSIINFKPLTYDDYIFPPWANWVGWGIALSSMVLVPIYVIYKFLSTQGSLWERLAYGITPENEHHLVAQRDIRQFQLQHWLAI
Chain of Sodium-dependent dopamine transporter (Homo sapiens) (Q01959 whole entry): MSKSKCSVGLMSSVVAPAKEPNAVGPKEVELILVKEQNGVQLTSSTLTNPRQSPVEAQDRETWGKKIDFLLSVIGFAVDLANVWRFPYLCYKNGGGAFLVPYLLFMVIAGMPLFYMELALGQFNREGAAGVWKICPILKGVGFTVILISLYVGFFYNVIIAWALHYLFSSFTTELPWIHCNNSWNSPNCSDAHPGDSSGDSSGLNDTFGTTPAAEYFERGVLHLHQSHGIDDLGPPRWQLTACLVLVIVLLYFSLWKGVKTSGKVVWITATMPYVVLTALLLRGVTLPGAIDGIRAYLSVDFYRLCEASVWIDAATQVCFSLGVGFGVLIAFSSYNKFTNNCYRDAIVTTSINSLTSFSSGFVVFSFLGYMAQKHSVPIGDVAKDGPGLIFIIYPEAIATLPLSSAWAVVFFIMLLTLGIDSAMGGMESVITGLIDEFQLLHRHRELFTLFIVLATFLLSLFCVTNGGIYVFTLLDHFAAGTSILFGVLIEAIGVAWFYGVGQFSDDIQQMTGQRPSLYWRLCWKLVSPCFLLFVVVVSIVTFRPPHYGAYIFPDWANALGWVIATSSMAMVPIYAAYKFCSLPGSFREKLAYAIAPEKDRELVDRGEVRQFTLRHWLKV
Chain of D(3) dopamine receptor (Homo sapiens) (P35462 whole entry): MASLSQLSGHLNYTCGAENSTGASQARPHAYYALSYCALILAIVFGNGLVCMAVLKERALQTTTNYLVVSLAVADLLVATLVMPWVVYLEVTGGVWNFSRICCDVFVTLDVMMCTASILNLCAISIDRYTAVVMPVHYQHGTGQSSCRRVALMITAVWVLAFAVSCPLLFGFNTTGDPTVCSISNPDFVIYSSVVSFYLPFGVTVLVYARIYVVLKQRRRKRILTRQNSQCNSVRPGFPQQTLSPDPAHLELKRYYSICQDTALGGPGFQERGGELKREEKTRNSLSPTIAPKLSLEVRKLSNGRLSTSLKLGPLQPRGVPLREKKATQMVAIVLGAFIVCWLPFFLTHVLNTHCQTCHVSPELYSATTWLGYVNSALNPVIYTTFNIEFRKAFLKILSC
Chain of 5-hydroxytryptamine receptor 2B (Homo sapiens) (P41595 whole entry): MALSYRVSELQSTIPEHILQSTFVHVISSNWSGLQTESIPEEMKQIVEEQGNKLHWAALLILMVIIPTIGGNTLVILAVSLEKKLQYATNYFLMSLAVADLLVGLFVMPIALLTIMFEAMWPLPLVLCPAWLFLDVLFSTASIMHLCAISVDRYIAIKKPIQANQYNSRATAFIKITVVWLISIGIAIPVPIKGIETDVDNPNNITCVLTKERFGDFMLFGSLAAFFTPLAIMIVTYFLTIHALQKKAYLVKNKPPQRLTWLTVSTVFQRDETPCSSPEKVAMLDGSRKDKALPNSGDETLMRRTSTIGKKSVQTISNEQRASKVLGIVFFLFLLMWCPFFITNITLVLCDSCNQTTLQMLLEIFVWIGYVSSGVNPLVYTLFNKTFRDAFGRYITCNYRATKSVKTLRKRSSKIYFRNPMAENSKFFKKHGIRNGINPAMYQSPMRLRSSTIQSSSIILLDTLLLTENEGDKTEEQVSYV
Chain of Muscarinic acetylcholine receptor M3 (Homo sapiens) (P20309 whole entry, looked up): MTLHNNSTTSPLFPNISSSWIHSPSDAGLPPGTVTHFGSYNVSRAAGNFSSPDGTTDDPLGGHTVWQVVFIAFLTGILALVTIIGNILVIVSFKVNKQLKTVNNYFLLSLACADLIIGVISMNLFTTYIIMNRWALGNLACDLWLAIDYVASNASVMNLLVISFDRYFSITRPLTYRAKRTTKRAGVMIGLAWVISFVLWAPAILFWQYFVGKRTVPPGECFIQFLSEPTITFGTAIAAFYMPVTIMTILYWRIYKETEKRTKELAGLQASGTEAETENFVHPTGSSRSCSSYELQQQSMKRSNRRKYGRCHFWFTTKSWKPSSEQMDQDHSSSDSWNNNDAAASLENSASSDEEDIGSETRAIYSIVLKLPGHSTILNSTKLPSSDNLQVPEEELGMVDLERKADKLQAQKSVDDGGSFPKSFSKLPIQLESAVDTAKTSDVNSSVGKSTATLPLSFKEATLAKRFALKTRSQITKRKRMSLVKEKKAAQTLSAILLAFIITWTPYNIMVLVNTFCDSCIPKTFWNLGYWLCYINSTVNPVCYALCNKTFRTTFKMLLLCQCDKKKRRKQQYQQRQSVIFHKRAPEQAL
Chain of Beta-2 adrenergic receptor (Homo sapiens) (P07550 whole entry, looked up): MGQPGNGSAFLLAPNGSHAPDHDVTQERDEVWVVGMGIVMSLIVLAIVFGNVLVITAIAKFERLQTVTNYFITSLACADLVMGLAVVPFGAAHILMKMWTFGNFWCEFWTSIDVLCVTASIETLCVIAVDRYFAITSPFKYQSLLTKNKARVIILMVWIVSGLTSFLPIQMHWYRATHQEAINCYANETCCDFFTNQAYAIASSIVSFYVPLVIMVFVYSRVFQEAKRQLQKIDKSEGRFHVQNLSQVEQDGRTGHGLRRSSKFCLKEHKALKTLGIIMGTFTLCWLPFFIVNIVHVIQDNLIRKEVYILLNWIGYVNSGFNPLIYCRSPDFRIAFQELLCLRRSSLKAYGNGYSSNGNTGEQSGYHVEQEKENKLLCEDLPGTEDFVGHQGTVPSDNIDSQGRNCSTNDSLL
Chain of 5-hydroxytryptamine receptor 5A (Homo sapiens) (P47898 whole entry): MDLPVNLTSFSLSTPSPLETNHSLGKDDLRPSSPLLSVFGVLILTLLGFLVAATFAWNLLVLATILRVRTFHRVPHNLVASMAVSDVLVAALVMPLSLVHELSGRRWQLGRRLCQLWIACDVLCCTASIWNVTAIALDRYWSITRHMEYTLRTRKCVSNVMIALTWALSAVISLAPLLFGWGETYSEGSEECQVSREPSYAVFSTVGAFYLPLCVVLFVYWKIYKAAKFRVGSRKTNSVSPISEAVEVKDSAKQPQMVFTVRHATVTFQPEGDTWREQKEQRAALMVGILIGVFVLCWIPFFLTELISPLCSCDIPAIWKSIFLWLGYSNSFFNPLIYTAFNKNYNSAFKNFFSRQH

With `NCCc1cn(S(=O)(=O)c2c(Cl)nc3sccn23)c2ccccc12`, the inhibition was 98.3% in assay [1]; 47.2% in [2]; 84.1% in assay [3]; 28.4% in assay [4]; 52.1% in [5]; 16.6% in [6]. The inhibition is 16.1% in [7]; 38.2% in assay [8]; 39.8% in [9]; 11.2% in assay [10]; 32% in assay [11]; 67.9% in assay [12]. Besides, the results for the inhibition in assay [13] and in assay [14] were 38.7% and 25.2%, respectively.

As to `CN1CCCC(n2nc(Cc3ccc(Cl)cc3)c3ccccc3c2=O)CC1` (centres undefined), the inhibition in assay [1] was 89.5%; in assay [2], 79.1%; in assay [3], 31.6%; in [4] it was 80.8%; in assay [6] it was 5.72%; in assay [7] it was 83.7%. Besides, the inhibition in [8] was 88.2%; in assay [9], -8.69%; in [10], 1.53%; in assay [11] it was 83.9%; in assay [12], 25.9%; in assay [13], 85.5%. Also, the inhibition in assay [14] was 57.3%.

`CN1CCN(c2ccc(Nc3c4ccccc4nc4ccccc34)cc2)CC1`: the inhibition is 36.1% in [1]; 66% in [2]; 84.7% in assay [3]; 20.3% in assay [4]; 54.4% in assay [5]; 8.52% in [6]. Moreover, the inhibition is 24.6% in assay [7]; 59.2% in assay [8]; 81.7% in assay [9]; 15.5% in assay [10]; -2.42% in assay [11]; 62.7% in assay [12]. Also, the inhibition in assay [13] is 13.3%; in [14], 43.4%.

For the compound `COc1ccccc1N1CCN(CCCCNC(=O)c2ccc3ccccc3c2)CC1`, the inhibition in assay [1] was 97%; in [2] it was 99.5%; in assay [3] it was 68.2%; in assay [4], 76.4%; in assay [5] it was 97%; in assay [6], 108%. Further, the inhibition in assay [7] was 0.77%; in assay [8] it was 94%; in assay [9] it was 38.9%; in [10], 8.79%; in assay [12], 73.9%; in [13] it was 95.1%. For the same compound, the inhibition in assay [14] was 3.09%.

On to `Cc1cc(C)cc(-c2cnc3cc(Cl)c(-c4cccc(O)c4)cc3c2OCCCN)c1`, for which the inhibition in assay [1] is 88.6%; in [2] it was 25.7%; in assay [3], 59.5%; in assay [4], 96.4%; in [5], 98.8%; in assay [6], 64.1%. For the same compound, the inhibition is 8.82% in [7]; 53.7% in [8]; 92.8% in assay [9]; 68.2% in assay [10]; 95.9% in [11]; 32.1% in assay [13]. The inhibition in assay [14] was 59.2%.

`CN1CCC(C(=O)c2cccc(NC(=O)c3c(F)cc(F)cc3F)n2)CC1`: the inhibition is 60.6% in assay [1]; 20.8% in assay [2]; 23.5% in [3]; 27.2% in [4]; 16.4% in assay [5]; 4.22% in [6]. The inhibition in assay [7] is 27%; in assay [8] it was 6.55%; in assay [9] it was -3.08%; in assay [10], -0.15%; in [12], 42.1%; in [13], 14%. Moreover, the inhibition in assay [14] was 43.5%.

`CN(C)C(=O)N[C@H]1CC[C@H](CCN2CCN(c3cccc(Cl)c3Cl)CC2)CC1`: the inhibition is 99% in assay [1]; 90.6% in [2]; 49.7% in assay [3]; 69.8% in assay [4]; 98.7% in assay [5]; 102% in assay [6]. The inhibition in assay [7] was 64%; in assay [8] it was 89.4%; in assay [9], 31.6%; in [10], 2.57%; in assay [12], 52.5%; in assay [13] it was 103%. Also, in assay [14], the inhibition is 27.8%.

Consider `CN[C@@H]1CCc2[nH]c3ccc(C(N)=O)cc3c2C1`, for which the inhibition was 6.12% in assay [1]; 13.7% in assay [2]; -1.01% in [3]; 9.03% in assay [4]; 0.33% in assay [5]; 56.4% in assay [6]. Moreover, the inhibition is -3.71% in assay [7]; 19.6% in [8]; 22.7% in [9]; 2.79% in assay [10]; 47.6% in [11]; 64.7% in assay [13]. Also, the inhibition in assay [14] is 15.7%.

As for `C[N+]1(C)[C@@H]2C[C@@H](OC(=O)C(O)(c3cccs3)c3cccs3)C[C@H]1[C@@H]1O[C@@H]12`, the inhibition in [1] was 11.5%; in [2] it was 8.74%; in assay [3] it was -2.62%; in assay [4] it was 2.25%; in assay [5] it was 92.1%; in assay [7], 98.8%. The inhibition in assay [8] is 13.1%; in assay [9], 16.1%; in assay [10], -8.1%; in assay [11], 24%; in [12], -2.43%; in [13], 20%. The inhibition in assay [14] was 99.2%.

The inhibition is the relative decrease from the control value, in per cent.
